From patent publication US5281603A, “Angiotensin II receptor blocking 2,3,6 substituted quinazolinones” (American Cyanamid Company, priority 1993, dated 1994)
“And” between values parts separate entries of the source, which are not always exact repeats. Equal entries are not always repeated.

Test system: Angiotensin II vasopressor response
Test: AII challenge: antagonism of angiotensin II vasopressor response in conscious spontaneously hypertensive rats
Type: in vivo, rat (Male Okamoto-Aoki SHR)
Conditions: 10 mg/kg I.V.; for % Inhibition / Average Change: SHR n=2; for Response After AII / Change / Control Before AII: individual SHR
From the text: By administering a compound of this invention to a rat, and then challenging with angiotensin II, a blockage of the vasopressor response is realized.
Conscious Male Okamoto-Aoki SHR, 16-20 weeks old, weighing approximately 330 g are purchased from Charles River Labs (Wilmington, Mass.). Conscious rats are restrained in a supine position with elastic tape. The area at the base of the tail is locally anesthetized by subcutaneous infiltration with 2% procaine. The ventral caudal artery and vein are isolated, and a cannula made of polyethylene (PE) 10-20 tubing (fused together by heat) is passed into the lower abdominal aorta and vena cava, respectively. The cannula is secured, heparinized (1,000 I.U./ml), sealed and the wound is closed. The animals are placed in plastic restraining cages in an upright position. The cannula is attached to a Statham P23Db pressure transducer, and pulsatile blood pressure is recorded to 10-15 minutes with a Gould Brush recorder. (Chan et al., (Drug Development Res., 18:75-94, 1989).
Angiotensin II (human sequence, Sigma Chem. Co., St. […] Then a test compound, vehicle or a known angiotensin II antagonist is administered i.v., i.p. or orally to each set of rats. The two doses of angiotensin II are given to each rat again at 30, 60, 90, 120, 180, 240 and 300 minutes post dosing the compound or vehicle. The vasopressor response of angiotensin II is measured for the increase in systolic blood pressure in mmHg. The percentage of antagonism or blockade of the vasopressor response of angiotensin II by a compound is calculated using the vasopressor response (increase in systolic blood pressure) of angiotensin II of each rat predosing the compound as 100%. A compound is considered active if at 30 mg/kg i.v. it antagonized at least 50% of the response.

[1] = AII 0.05 mcg/kg IV, 30 min post dose
[2] = AII 0.05 mcg/kg IV, 60 min post dose
[3] = AII 0.05 mcg/kg IV, 90 min post dose
[4] = AII 0.05 mcg/kg IV, 120 min post dose
[5] = AII 0.05 mcg/kg IV, 180 min post dose
[6] = AII 0.05 mcg/kg IV, 240 min post dose
[7] = AII 0.05 mcg/kg IV, 300 min post dose
[8] = AII 0.1 mcg/kg IV, 30 min post dose
[9] = AII 0.1 mcg/kg IV, 60 min post dose
[10] = AII 0.1 mcg/kg IV, 90 min post dose
[11] = AII 0.1 mcg/kg IV, 120 min post dose
[12] = AII 0.1 mcg/kg IV, 180 min post dose
[13] = AII 0.1 mcg/kg IV, 240 min post dose
[14] = AII 0.1 mcg/kg IV, 300 min post dose
[15] = AII 0.05 mcg/kg IV, 30 min post dose, 10 mg/kg
[16] = AII 0.05 mcg/kg IV, 60 min post dose, 10 mg/kg
[17] = AII 0.05 mcg/kg IV, 90 min post dose, 10 mg/kg
[18] = AII 0.05 mcg/kg IV, 120 min post dose, 10 mg/kg
[19] = AII 0.05 mcg/kg IV, 180 min post dose, 10 mg/kg
[20] = AII 0.05 mcg/kg IV, 240 min post dose, 10 mg/kg
[21] = AII 0.05 mcg/kg IV, 300 min post dose, 10 mg/kg
[22] = AII 0.1 mcg/kg IV, 30 min post dose, 10 mg/kg
[23] = AII 0.1 mcg/kg IV, 60 min post dose, 10 mg/kg
[24] = AII 0.1 mcg/kg IV, 90 min post dose, 10 mg/kg
[25] = AII 0.1 mcg/kg IV, 120 min post dose, 10 mg/kg
[26] = AII 0.1 mcg/kg IV, 180 min post dose, 10 mg/kg
[27] = AII 0.1 mcg/kg IV, 240 min post dose, 10 mg/kg
[28] = AII 0.1 mcg/kg IV, 300 min post dose, 10 mg/kg

CCCCc1nc2ccc(C3=NN[C@H]4C(=O)N(C)C(=O)[C@@H]34)cc2c(=O)n1Cc1ccc(-c2ccccc2-c2nnn[nH]2)cc1 (relative stereo) [Example 7]
% Inhibition [1]: 57% | Average Change [1]: 20 mmHg | % Inhibition [2]: 57% | Average Change [2]: 20 mmHg | % Inhibition [3]: 57% | Average Change [3]: 20 mmHg | % Inhibition [4]: 62% | Average Change [4]: 17.5 mmHg | % Inhibition [5]: 67% | Average Change [5]: 15 mmHg | % Inhibition [6]: 62% | Average Change [6]: 17.5 mmHg | % Inhibition [7]: 24% | Average Change [7]: 35 mmHg | % Inhibition [8]: 50% | Average Change [8]: 27.5 mmHg | % Inhibition [9]: 58% | Average Change [9]: 23 mmHg | % Inhibition [10]: 59% | Average Change [10]: 22.5 mmHg | % Inhibition [11]: 67% | Average Change [11]: 18 mmHg | % Inhibition [12]: 50% | Average Change [12]: 27.5 mmHg | % Inhibition [13]: 55% | Average Change [13]: 25 mmHg | % Inhibition [14]: 54% | Average Change [14]: 25.5 mmHg | Response After AII [1]: 240 mmHg | Change [15]: 15 mmHg and 25 mmHg | Control Before AII [15]: 150 mmHg and 215 mmHg | Response After AII [15]: 165 mmHg | Change [16]: 15 mmHg and 25 mmHg | Control Before AII [16]: 145 mmHg and 215 mmHg | Response After AII [16]: 160 mmHg and 240 mmHg | Response After AII [3]: 230 mmHg | Change [17]: 40 mmHg and 0 mmHg | Control Before AII [17]: 135 mmHg and 230 mmHg | Response After AII [17]: 175 mmHg | Response After AII [4]: 160 mmHg | Change [18]: 20 mmHg and 15 mmHg | Control Before AII [18]: 140 mmHg and 200 mmHg | Response After AII [18]: 215 mmHg | Change [19]: 25 mmHg and 5 mmHg | Control Before AII [19]: 140 mmHg and 205 mmHg | Response After AII [19]: 165 mmHg and 210 mmHg | Change [20]: 25 mmHg and 10 mmHg | Control Before AII [20]: 135 mmHg and 190 mmHg | Response After AII [20]: 160 mmHg and 200 mmHg | Change [7]: 35 mmHg | Control Before AII [21]: 140 mmHg and 190 mmHg | Response After AII [21]: 175 mmHg and 225 mmHg | Change [22]: 20 mmHg and 35 mmHg | Control Before AII [22]: 140 mmHg and 215 mmHg | Response After AII [22]: 160 mmHg and 250 mmHg | Change [23]: 15 mmHg and 31 mmHg | Control Before AII [23]: 145 mmHg and 224 mmHg | Response After AII [23]: 160 mmHg and 255 mmHg | Change [24]: 25 mmHg and 20 mmHg | Control Before AII [24]: 140 mmHg and 215 mmHg | Response After AII [24]: 165 mmHg and 235 mmHg | Response After AII [11]: 160 mmHg | Change [25]: 25 mmHg and 11 mmHg | Control Before AII [25]: 135 mmHg and 214 mmHg | Response After AII [25]: 225 mmHg | Change [26]: 35 mmHg and 20 mmHg | Control Before AII [26]: 140 mmHg and 195 mmHg | Response After AII [26]: 175 mmHg and 215 mmHg | Change [27]: 35 mmHg and 15 mmHg | Control Before AII [27]: 140 mmHg and 190 mmHg | Response After AII [27]: 175 mmHg and 205 mmHg | Change [28]: 40 mmHg and 11 mmHg | Control Before AII [28]: 140 mmHg and 205 mmHg | Response After AII [28]: 180 mmHg and 216 mmHg
